Test results as given in patent US7544703B2, “Cyclic compound having 4-pyridylalkylthio group having substituted or unsubstituted amino group introduced therein” (Santen Pharmaceutical Co., Ltd., priority 2004, dated 2009).
Structures can show the parent of a compound that is named as a salt.
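Further: each well holds 100 µL cell suspension before compound addition.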

These compounds were tested on HUVEC (normal human umbilical vein endothelial cells) (assay: VEGF-induced HUVEC proliferation: cell proliferation inhibitory action test). Conditions: 72 h, 5 μL of 20 μg/mL test compound solution per well, WST-8 absorbance at 450 nm three days after VEGF addition, read-out: Cell proliferation inhibition rate (%).
Type: cell-based
Method: A cell proliferation inhibitory action test of the compounds of the present invention was performed using a VEGF-induced HUVEC proliferation evaluation system (HUVEC stands for normal human umbilical vein endothelial cells), which is one of the widely-used methods of evaluating in vitro angiogenesis inhibitory effects of drugs. As one of the widely-used methods of evaluating angiogenesis inhibitory effects of drugs, a cell proliferation inhibitory action test using a VEGF-induced HUVEC proliferation reaction evaluation system has been reported in Cancer Res., 59, 99-106 (1999). According to the method described in the above-mentioned document, a cell proliferation inhibitory action test of the compounds of the present invention was performed, the cell proliferation inhibition rate was calculated, and the angiogenesis inhibitory effect of each of the compounds of the present invention was evaluated using the obtained rate as an index. Each test compound was dissolved in dimethyl sulfoxide (hereinafter abbreviated as DMSO), and the obtained solution was diluted with a commercially available phosphoric acid buffer solution (hereinafter abbreviated as PBS), whereby a 20 μg/mL test compound solution was prepared. HUVEC was suspended in a 0.5% fetal bovine serum (hereinafter abbreviated as FBS)-containing F12K medium, whereby a 2×10^4 cells/mL HUVEC suspension was prepared. VEGF was dissolved in 0.1% bovine serum albumin-containing PBS, and the obtained solution was diluted with the 0.5% FBS-containing F12K medium, whereby a 400 ng/mL VEGF solution was prepared. • 1) The HUVEC suspension was inoculated in an amount of 100 μL into each well of a 96-well plate coated with type I collagen (2×10^3 cells per well). • 2) One day after the inoculation, the test compound solution was added in an amount of 5 μL per well. • 3) One hour after the addition of the test compound solution, the VEGF solution was added in an amount of 5 μL per well. • 4) Three days after the addition of the VEGF solution, WST-8 assay kit (Dojin Chemical Co., Ltd.) was added in an amount of 10 μL per well. • 5) After 3 hours, the above-mentioned plate was attached to an absorptiometer (Multilabel Counter ARVO), and an absorbance at 450 nm of each well suspension (hereinafter referred to as test compound suspension) was measured. • 6) A test was carried out in the same manner as in the above 1) to 5) except that 1.0% DMSO was used instead of the test compound solution. The result was used as a control. Incubation was carried out under conditions of 37° C., 5% carbon dioxide and […] in an incubator throughout the above-mentioned test steps. The cell proliferation inhibition rate (%), which was used as an index of an angiogenesis inhibitory effect, was calculated according to the following calculation equation. Cell proliferation inhibition rate (%)=100−{(Absorbance of test compound suspension−A)/(absorbance of control−A)}×100 (Calculation Equation) A: Absorbance of only cell suspension (cell+medium) (Test Results and Discussion)
`Cc1cc(C)cc(NC(=O)c2cccnc2SCc2ccnc(N3CCN(C)CC3)c2)c1` [Compound 1-1, N-(3,5-Dimethylphenyl)-2-[2-(4-methylpiperazin-1-yl)pyridin-4-ylmethylthio]pyridine-3-carboxamide] was tested, and the inhibition at 20 µg/mL (stock) was 97%.
For `Cc1cc(C)cc(NC(=O)c2cccnc2SCc2ccnc(NC3CC3)c2)c1` [Compound 1-2, 2-(2-Cyclopropylaminopyridin-4-ylmethylthio)-N-(3,5-dimethylphenyl)pyridine-3-carboxamide], the inhibition at 20 µg/mL (stock) was 100%.
In the case of `Cc1cc(C)cc(NC(=O)c2cccnc2SCc2ccnc(N(C)CCN(C)C)c2)c1` [Compound 1-3, 2-[2-(N-(2-Dimethylaminoethyl)-N-methylamino)pyridin-4-ylmethylthio]-N-(3,5-dimethylphenyl)pyridine-3-carboxamide], the inhibition at 20 µg/mL (stock) is reported as 99%.
`Cc1cc(C)cc(NC(=O)c2cccnc2SCc2ccnc(N3CCCCC3)c2)c1` [Compound 1-5, N-(3,5-Dimethylphenyl)-2-[2-(piperidin-1-yl)pyridin-4-ylmethylthio]pyridine-3-carboxamide] gave an inhibition at 20 µg/mL (stock) of 90%.
For `O=C(Nc1ccc2c(c1)CCC2)c1cccnc1SCc1ccnc(N2CCOCC2)c1` [Compound 1-10, N-(Indan-5-yl)-2-(2-morpholinopyridin-4-ylmethylthio)pyridine-3-carboxamide], the inhibition at 20 µg/mL (stock) was 94%.
`CC(=O)N1CCN(c2cc(CSc3ncccc3C(=O)Nc3ccc4c(c3)CCC4)ccn2)CC1` [Compound 1-11, 2-[2-(4-Acetylpiperazin-1-yl)pyridin-4-ylmethylthio]-N-(indan-5-yl)-pyridine-3-carboxamide] gave an inhibition at 20 µg/mL (stock) of 96%.
`CCCCCNc1cc(CSc2ncccc2C(=O)Nc2cc(C)cc(C)c2)ccn1` [Compound 1-20, N-(3,5-Dimethylphenyl)-2-(2-n-pentylaminopyridin-4-ylmethylthio)pyridine-3-carboxamide] gave an inhibition at 20 µg/mL (stock) of 100%.
Compound `Cc1cc(C)cc(NC(=O)c2cccnc2SCc2ccnc(NC(=O)OC(C)(C)C)c2)c1` [Compound 2-1, 2-(2-tert-Butoxycarbonylaminopyridin-4-ylmethylthio)-N-(3,5-dimethylphenyl)pyridine-3-carboxamide] has an inhibition at 20 µg/mL (stock) of 100%.
`CC(C)c1cccc(NC(=O)c2cccnc2SCc2ccnc(NC(=O)OC(C)(C)C)c2)c1` [Compound 2-2, 2-(2-tert-Butoxycarbonylaminopyridin-4-ylmethylthio)-N-(3-isopropylphenyl)pyridine-3-carboxamide] showed an inhibition at 20 µg/mL (stock) of 100%.
For `CC(C)(C)OC(=O)Nc1cc(CSc2ncccc2C(=O)Nc2ccc3c(c2)CCC3)ccn1` [Compound 2-3, 2-(2-tert-Butoxycarbonylaminopyridin-4-ylmethylthio)-N-(indan-5-yl)pyridine-3-carboxamide], the inhibition at 20 µg/mL (stock) was 100%.
Work on `CC(C)(C)OC(=O)Nc1cc(CSc2ncccc2C(=O)Nc2ccc(OC(F)(F)F)cc2)ccn1` [Compound 2-4, 2-(2-tert-Butoxycarbonylaminopyridin-4-ylmethylthio)-N-(4-trifluoromethoxyphenyl)pyridine-3-carboxamide] yielded an inhibition at 20 µg/mL (stock) of 99%.
Compound `CC(C)(C)OC(=O)Nc1cc(CSc2ncccc2C(=O)Nc2ccc(C(C)(C)C)cc2)ccn1` [Compound 2-5, 2-(2-tert-Butoxycarbonylaminopyridin-4-ylmethylthio)-N-(4-tert-butylphenyl)pyridine-3-carboxamide] has an inhibition at 20 µg/mL (stock) of 95%.
`CC(C)(C)OC(=O)Nc1cc(CSc2ncccc2C(=O)Nc2ccc3cn[nH]c3c2)ccn1` [Compound 2-6, 2-(2-tert-Butoxycarbonylaminopyridin-4-ylmethylthio)-N-(1H-indazol-6-yl)pyridine-3-carboxamide] gave an inhibition at 20 µg/mL (stock) of 100%.
With `Cc1cc(C)cc(NC(=O)c2cccnc2SCc2ccnc(N(C)C(=O)OC(C)(C)C)c2)c1` [Compound 2-7, 2-[2-(N-tert-Butoxycarbonyl-N-methylamino)pyridin-4-ylmethylthio]-N-(3,5-dimethylphenyl)pyridine-3-carboxamide] the inhibition at 20 µg/mL (stock) was 52%.
`Cc1cc(C)cc(NC(=O)c2cccnc2SCc2ccnc(Nc3ncc(C#N)s3)c2)c1` [Compound 2-24, 2-[2-(5-Cyanothiazol-2-ylamino)pyridin-4-ylmethylthio]-N-(3,5-dimethylphenyl)pyridine-3-carboxamide] was tested, and the inhibition at 20 µg/mL (stock) was 88%.
In the case of `Nc1cc(CSc2ncccc2C(=O)Nc2ccc3c(c2)CCC3)ccn1` [Compound 3-3, 2-(2-Aminopyridin-4-ylmethylthio)-N-(indan-5-yl)pyridine-3-carboxamide monohydrochloride], the inhibition at 20 µg/mL (stock) is reported as 100%.
Work on `CC(C)(C)c1ccc(NC(=O)c2cccnc2SCc2ccnc(N)c2)cc1` [Compound 3-4, 2-(2-Aminopyridin-4-ylmethylthio)-N-(4-tert-butylphenyl)pyridine-3-carboxamide monohydrochloride] yielded an inhibition at 20 µg/mL (stock) of 100%.
Compound `Nc1cc(CSc2ncccc2C(=O)Nc2ccc3cn[nH]c3c2)ccn1` [Compound 3-5, 2-(2-Aminopyridin-4-ylmethylthio)-N-(1H-indazol-6-yl)pyridine-3-carboxamide monohydrochloride] has an inhibition at 20 µg/mL (stock) of 96%.
`CNc1cc(CSc2ncccc2C(=O)Nc2ccc3c(c2)CCC3)ccn1` [Compound 3-7, N-(Indan-5-yl)-2-(2-methylaminopyridin-4-ylmethylthio)pyridine-3-carboxamide monohydrochloride] showed an inhibition at 20 µg/mL (stock) of 96%.
`Nc1cc(CSc2ncccc2C(=O)Nc2ccc(Cl)cc2)ccn1` [Compound 3-9, 2-(2-Aminopyridin-4-ylmethylthio)-N-(4-chlorophenyl)pyridine-3-carboxamide monohydrochloride] gave an inhibition at 20 µg/mL (stock) of 100%.
`Nc1cc(CSc2ncccc2C(=O)Nc2cc3ccccc3cn2)ccn1` [Compound 3-13, 2-(2-Aminopyridin-4-ylmethylthio)-N-(isoquinolin-3-yl)pyridine-3-carboxamide] was tested, and the inhibition at 20 µg/mL (stock) was 100%.
Compound `Nc1cc(CSc2ccccc2C(=O)Nc2ccc(Cl)cc2)ccn1` [Compound 3-21, 2-(2-Aminopyridin-4-ylmethylthio)-N-(4-chlorophenyl)benzamide monohydrochloride] has an inhibition at 20 µg/mL (stock) of 100%.
`Cc1cc(C)cc(NC(=O)c2sccc2SCc2ccnc(N)c2)c1` [Compound 3-28, 3-(2-Aminopyridin-4-ylmethylthio)-N-(3,5-dimethylphenyl)thiophene-2-carboxamide] gave an inhibition at 20 µg/mL (stock) of 100%.
`Cc1cc(C)cc(NC(=O)c2cccnc2SCc2ccnc(NC(=O)C(F)(F)F)c2)c1` [Compound 4-3, N-(3,5-Dimethylphenyl)-2-(2-trifluoroacetylaminopyridin-4-ylmethylthio)pyridine-3-carboxamide] gave an inhibition at 20 µg/mL (stock) of 100%.
`Cc1cc(C)cc(NC(=O)c2cccnc2SCc2ccnc(NC(=O)C(C)C)c2)c1` [Compound 4-4, N-(3,5-Dimethylphenyl)-2-(2-isobutyrylaminopyridin-4-ylmethylthio)pyridine-3-carboxamide] was tested, and the inhibition at 20 µg/mL (stock) was 100%.
Compound `Cc1cc(C)cc(NC(=O)c2cccnc2SCc2ccnc(NC(=O)C(C)(C)C)c2)c1` [Compound 4-5, N-(3,5-Dimethylphenyl)-2-(2-pivaloylaminopyridin-4-ylmethylthio)pyridine-3-carboxamide] has an inhibition at 20 µg/mL (stock) of 100%.
Compound `Cc1cc(C)cc(NC(=O)c2cccnc2SCc2ccnc(NS(=O)(=O)C(F)(F)F)c2)c1` [Compound 4-6, N-(3,5-Dimethylphenyl)-2-(2-trifluoromethanesulfonylaminopyridin-4-ylmethylthio)pyridine-3-carboxamide] has an inhibition at 20 µg/mL (stock) of 100%.
